Experiment [1] concerns the target T1, CCKB receptor (Mus musculus, UniProt P56481).
T1 construct: The whole brains from male mice (CD1 22-25g; Charles River) were removed; from tissue; host or cells: cerebral cortex membranes of male CD1 mice
T1 sequence (P56481 1-453): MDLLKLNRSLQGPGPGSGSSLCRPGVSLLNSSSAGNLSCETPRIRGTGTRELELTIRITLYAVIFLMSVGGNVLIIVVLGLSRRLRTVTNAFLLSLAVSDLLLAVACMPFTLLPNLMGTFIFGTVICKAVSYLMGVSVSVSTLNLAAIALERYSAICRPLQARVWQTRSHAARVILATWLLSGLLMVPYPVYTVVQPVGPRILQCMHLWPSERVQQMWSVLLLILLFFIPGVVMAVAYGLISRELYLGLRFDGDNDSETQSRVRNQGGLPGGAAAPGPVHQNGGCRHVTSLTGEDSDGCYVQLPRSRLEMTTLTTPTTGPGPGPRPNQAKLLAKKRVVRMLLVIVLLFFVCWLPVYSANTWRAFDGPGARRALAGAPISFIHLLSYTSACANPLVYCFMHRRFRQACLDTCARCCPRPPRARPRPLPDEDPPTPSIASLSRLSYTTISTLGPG
Nature of the experiment: radioligand binding assay at the CCKB receptor in mouse cortical membranes. Particulars: [125I]-CCK8S 200pM, 150 min at 21 ± 3°C; for Ki: read-out: CCKB pKi (converted). The procedure: The compounds of the examples were tested for binding at the CCKB receptor in mouse cortical membranes by means of a radioligand binding assay. The procedure was as follows:
The whole brains from male mice (CD1 22-25g; Charles River) were removed and placed in ice-cold buffer (pH7.2 @ 21 ± 3°C) of the following composition (mM); 10 HEPES, 130 NaCl, 4.7 KCl, 5 MgCl2, 1 EDTA and containing 0.25g.l^-1 bacitracin. The cortex was dissected, weighed and homogenised in 40ml ice-cold buffer using a Teflon-in-glass homogeniser. The homogenate was centrifuged at 39,800g for 20 min at 4°C, the supernatant discarded and the pellet resuspended by homogenisation in fresh buffer. The homogenate was recentrifuged (39,800g; 20 min @ 4°C) and the final pellet was resuspended in HEPES buffer to give a tissue concentration of 2mg.ml^-1(original wet weight).
The assay was terminated by rapid filtration through pre-soaked Whatman GF/B filters using a Brandell Cell harvester. The filters were washed (3 x 3ml) with ice-cold 50mM Tris-HCl (pH7.4 @ 4°C) and bound radioactivity determined by counting (1 min.) in a gamma-counter.

Experiment [2] concerns the target T2, gastrin (Rattus norvegicus, UniProt P30553).
T2 construct: The stomach was excised and flushed with ca. 1 ml of unbuffered physiological saline solution; from tissue; host or cells: isolated whole stomach of immature rats (33-50 g, ca. 21 days old)
T2 sequence (P30553 1-452): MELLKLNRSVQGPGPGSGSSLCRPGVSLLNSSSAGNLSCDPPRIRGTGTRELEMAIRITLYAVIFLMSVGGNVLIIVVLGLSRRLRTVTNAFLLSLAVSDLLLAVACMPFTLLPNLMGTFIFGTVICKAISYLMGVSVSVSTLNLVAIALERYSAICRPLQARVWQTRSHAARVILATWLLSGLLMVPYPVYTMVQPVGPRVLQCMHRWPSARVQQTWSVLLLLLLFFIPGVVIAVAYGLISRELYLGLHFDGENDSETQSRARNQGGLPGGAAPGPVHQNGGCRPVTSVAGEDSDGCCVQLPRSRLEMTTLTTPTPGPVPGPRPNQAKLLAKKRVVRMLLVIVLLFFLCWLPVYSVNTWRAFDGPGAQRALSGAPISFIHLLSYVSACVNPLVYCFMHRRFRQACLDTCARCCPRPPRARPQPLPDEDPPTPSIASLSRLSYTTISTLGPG
Nature of the experiment: gastrin antagonist activity in an immature rat stomach assay. The settings on record: isolated immature rat stomach, cumulative pentagastrin dose-response curves, acid secretion; for Kb: read-out: Gastrin pKB (converted). On the procedure:
The compounds of the examples were also tested for gastrin antagonist activity in an immature rat stomach assay. The procedure was as follows: The oesophagus of immature rats (33-50 g, ca. 21 days old) was ligated at the level of the cardiac sphincter and the duodenal sphincter was cannulated. The stomach was excised and flushed with ca. 1 ml of unbuffered physiological saline solution. The fundus was punctured and cannulated. A further 4-5 ml of unbuffered solution was flushed through the stomach to ensure the preparation was not leaking. […] The stomach was continuously perfused at a rate of 1 ml min^-1 with unbuffered solution gassed with 100% O2 with the perfusate passing over an internally referenced pH-electrode fixed 12 cm above the stomach. After 120 min of stabilisation the drugs were added directly to the serosal solution in the organ bath and after a further 60 min cumulative pentagastrin dose-response curves were started.

Here are results for 15 compounds from patent EP0719251B1, “BICYCLO (2.2.2) OCTANE DERIVATIVES CHOLECYSTOKININ AND/OR GASTRIN ANTAGONISTS” (JAMES BLACK FOUNDATION LIMITED, priority 1993, dated 1995).

`O=C(NCC12CC3CC(CC(C3)C1)C2)C1C2c3ccccc3C(c3ccccc32)C1C(=O)N[C@@H](Cc1ccccc1)C(=O)Nc1cc(-c2nnn[nH]2)cc(-c2nnn[nH]2)c1` (stereo partly drawn) [Example 44, cis-7-(1S-(3,5-ditetrazolylphenylaminocarbonyl) -2-phenylethylaminocarbonyl) -8-(1-adamantanemethylaminocarbonyl)-2,3,5,6-dibenzobicyclo[2.2.2] octane]: the “CCKB pKi” value in experiment [1] was 6.5. Also, in experiment [2] (60 min), the “Gastrin pKB” value came out at 6.9. For the compound `O=C(O)c1cccc(NC(=O)[C@H](Cc2cccs2)NC(=O)C2C3c4ccccc4C(c4ccccc43)C2C(=O)NCc2cccc3ccccc23)c1` (single isomer, unassigned) [Example 58, cis-7-(1S-(3-carboxyphenylaminocarbonyl)-2-(2-thiophenyl)ethylaminocarbonyl)-8-(1-naphthalenemethylaminocarbonyl)-2,3,5,6-dibenzobicyclo[2.2.2]octane], the Ki in experiment [1] is 501 nM.

As to `O=C(O)c1cc(NC(=O)[C@H](Cc2ccc(O)cc2)NC(=O)C2C3c4ccccc4C(c4ccccc43)C2C(=O)NCC23CC4CC(CC(C4)C2)C3)cc(C(=O)O)c1` (single isomer, unassigned) [Example 24, cis-7-(1S-(3,5-dicarboxyphenylaminocarbonyl) -2-(4-hydroxyphenyl) -ethylaminocarbonyl)-8-(1-adamantanemethylaminocarbonyl) -2,3,5,6-dibenzobicyclo[2.2.2]octane], the Ki in experiment [1] was 1.58 nM. Also, the Kb in experiment [2] is 1.26 nM.

As to `O=C(O)c1ccc(NC(=O)[C@H](Cc2ccccc2)NC(=O)C2C3c4ccccc4C(c4ccccc43)C2C(=O)NCC23CC4CC(CC(C4)C2)C3)cc1` (single isomer, unassigned) [Example 46, cis-7-(1S-(4-carboxy-phenylaminocarbonyl) -2-phenylethylaminocarbonyl)-8-(1-adamantane-methylaminocarbonyl) -2,3,5,6-dibenzobicyclo[2.2.2]octane], the Ki in experiment [1] is 158 nM. The Kb in experiment [2] was 2000 nM. For `O=C(O)c1ccc(NC(=O)[C@H](Cc2ccccc2)NC(=O)C2C3c4ccccc4C(c4ccccc43)C2C(=O)NCC23CC4CC(CC(C4)C2)C3)cc1` (single isomer, unassigned) [Example 47], in experiment [1], the Ki was 126 nM.

Turning to `O=C(O)c1cc(NC(=O)[C@H](Cc2ccc(O)cc2)NC(=O)C2C3c4ccccc4C(c4ccccc43)C2C(=O)NCC23CC4CC(CC(C4)C2)C3)cc(C(=O)O)c1` (single isomer, unassigned) [Example 25, cis-7-(1S-(3,5-dicarboxyphenylaminocarbonyl)-2-(4-hydroxyphenyl)ethylaminocarbonyl)-8-(1-adaxantanemethylaminocarbonyl)-2,3,5,6-dibenzobicyclo[2.2.2]octane], the Kb in experiment [2] was 63.1 nM. With “cis-7-(1S-(3-carboxyphenylaminocarbonyl)-2-phenylethylaminocarbonyl)-8-(1-naphthalenemethylaminocarbonyl)-2,3,5,6-dibenzobicyclo[2.2.2]octane [Example 59]”, the “CCKB pKi” value in experiment [1] was 7.2. With `O=C(O)c1cc(NC(=O)[C@@H](Cc2ccc(O)cc2)NC(=O)C2C3c4ccccc4C(c4ccccc43)C2C(=O)NCC23CC4CC(CC(C4)C2)C3)cc(C(=O)O)c1` (single isomer, unassigned) [Example 26, cis-7-(1R-(3,5-dicarboxyphenylaminocarbonyl)-2-(4-hydroxyphenyl)-ethylaminocarbonyl)-8-(1-adamantanemethylaminocarbonyl) -2,3,5,6-dibenzobicyclo [2.2.2]octane], the Kb in experiment [2] was 158 nM. Turning to `O=C(NCC12CC3CC(CC(C3)C1)C2)C1C2c3ccccc3C(c3ccccc32)C1C(=O)N[C@@H](Cc1ccccc1)C(=O)Nc1ccccc1` (single isomer, unassigned) [Example 23, cis-7-(1S-(phenylaminocarbonyl)-2-phenylethylaminocarbonyl)-8-(1-adamantanemethylaminocarbonyl)-2,3,5,6-dibenzobicyclo[2.2.2]octane], the Kb in experiment [2] was 251 nM. For the compound `COC(=O)c1cc(NC(=O)[C@H](Cc2ccccc2)NC(=O)C2C3c4ccccc4C(c4ccccc43)C2C(=O)NCC23CC4CC(CC(C4)C2)C3)cc(C(=O)OC)c1` (single isomer, unassigned) [Example 48], the Ki in experiment [1] was 10000 nM. For the compound “cis-7-(1S-(3-carboxyphenylaminocarbonyl)-2- (2-thiophenyl)ethylaminocarbonyl)-8-(1-naphthalenemethylaminocarbonyl) -2,3,5,6-dibenzobicyclo[2.2.2]octane [Example 57]”, the “CCKB pKi” value in experiment [1] came out at 7.2. For the compound `O=C(O)c1cc(NC(=O)[C@H](Cc2ccccc2)NC(=O)C2C3c4ccccc4C(c4ccccc43)C2C(=O)NCC2CCCCCC2)cc(C(=O)O)c1` (single isomer, unassigned) [Example 29, cis-7-(1S-(3,5-dicarboxyphenylaminocarbonyl) -2-phenylethylaminocarbonyl) -8-(cycloheptanemethyl-aminocarbonyl)-2,3,5,6-dibenzobicyclo[2.2.2]octane], the Ki in experiment [1] is 39.8 nM. Besides, the Kb in experiment [2] is 100 nM.

In the case of `O=C(O)c1cc(NC(=O)[C@H](Cc2ccccc2)NC(=O)C2C3c4ccccc4C(c4ccccc43)C2C(=O)NCC2CCCCCC2)cc(C(=O)O)c1` (single isomer, unassigned) [Example 28, cis-7-(1S-(3,5-dicarboxyphenylaminocarbonyl) -2-phenylethylaminocarbonyl)-8-(1-cycloheptane-methylaminocarbonyl) -2,3,5,6-dibenzobicyclo[2.2.2]octane], in experiment [1], the Ki was 3.98 nM. Besides, the Kb in experiment [2] is 3.98 nM. For the compound `O=C(O)c1cccc(NC(=O)[C@H](Cc2ccccc2)NC(=O)C2C3c4ccccc4C(c4ccccc43)C2C(=O)NCc2cccc3ccccc23)c1` (single isomer, unassigned) [Example 60, cis-7-(1S-(3-carboxyphenylaminocarbonyl)-2-phenylethylaminocarbonyl)-8-(1-naphthalenemethylaminocarbonyl)-2,3,5,6-dibenzobicyclo [2.2.2]octane], the Ki in experiment [1] was 398 nM.

With `O=C(O)c1cc(NC(=O)[C@@H](Cc2ccc(O)cc2)NC(=O)C2C3c4ccccc4C(c4ccccc43)C2C(=O)NCC23CC4CC(CC(C4)C2)C3)cc(C(=O)O)c1` (single isomer, unassigned) [Example 27, cis-7-(1R-(3,5-dicarboxyphenylaminocarbonyl)-2-(4-hydroxyphenyl)ethylaminocarbonyl)-8-(1-adamantanemethylaminocarbonyl)-2,3,5,6-dibenzobicyclo [2.2.2]octane], in experiment [1], the Ki is 15.8 nM. For the same compound, the Kb in experiment [2] is 7.94 nM.
